Consider two compounds from the NIST ThermoML archive (doi:10.1021/je500448j).

For orientation: mass density means mass per unit of volume.

The conditions of the series: 298.15 K; 101.33 kPa; Liquid; Vibrating tube method.

Numbers after ± are expanded uncertainties.

`CN(C)c1ccccc1` [N,N-dimethylaniline]: the mass density turned out to be 952.05 ± 0.23 kg/m3. As to `Nc1ccccc1` [aniline], the mass density was 1017.39 ± 0.09 kg/m3.
